Experiments:
HCV = HCV viral entry into human host cells; assay type: cell-based
[1] = Dissolution of Catvira film coated tablets (Ribavirin and Sofosbuvir released); assay type: physicochemical
Procedure: • 1.1. Description: Yellow to deep yellow, oblong, biconvex, film coated tablets • 1.2. Determination of Average of Weight: (Limit: 1000 mg±5%) Proceed as BP2014 • 1.3. Determination of Disintegration Time: (Limit: NMT 30 min) Proceed as USP 35 • 1.4. Determination of Dissolution test for Sofosbuvir and Ribavirin:— Conditions of Dissolution:— • USP Apparatus: II (Paddle) • Speed: […] & Materials:— • Methanol HPLC Grade. • Acetonitrile HPLC Grade • Tetrahydrofuran HPLC Grade. • Ammonium acetate • Sofosbuvir and Ribavirin working standard. Apparatus & Equipement:— • Calibrated Analytical balance accurate to±0.1 mg • HPLC:—Waters UV detector or equivalent • Column: Symmetry (C18 (5 μm) 4.6×250 mm) or equivalent. • Sonicator with temperature control • Volumetric flasks • Pipettes class A Chromatographic Conditions:— • Column: Symmetry (C18 (5 μm) 4.6×250 mm) or equivalent. • Flow rate: 0.8 ml/min. • Detector: UV at λ242 nm • Injection volume: 10 μl • Mobile phase: (Acetonitrile: Tetrahydrofuran: Ammonium Acetate) (10:40:50) • Acetate Buffer: into 1000 ml volumetric flask, weight 1 gm of Ammonium Acetate buffer, add 900 ml purified water shake to dissolve then complete to the volume by the same solvent, adjust pH 3.5 by Glacial Acetic acid. […]

## O=C(O[C@@H]1Cc2c(O)cc(O)cc2O[C@@H]1c1cc(O)c(O)c(O)c1)c1cc(O)c(O)c(O)c1 [EGCG, (−)-Epigallocatechin Gallate]
HCV
  HCV viral entry into human host cells: effectively suppressed

## NC(=O)c1ncn([C@@H]2O[C@H](CO)[C@@H](O)[C@H]2O)n1 [Ribavirin, 1-[(2R,3R,4S,5R)-3,4-dihydroxy-5-(hydroxymethyl)oxolan-2-yl]-1H-1,2,4-triazole-3-carboxamide]
[1]; pH 1.2, 5 min
  Dissolution: 25.34%
[1]; pH 1.2, 10 min
  Dissolution: 43.13%
[1]; pH 1.2, 15 min
  Dissolution: 62.29%
[1]; pH 1.2, 20 min
  Dissolution: 80.69%
[1]; pH 1.2, 30 min
  Dissolution: 100.74%
[1]; pH 1.2, 45 min
  Dissolution: 101.36%
[1]; pH 1.2, 60 min
  Dissolution: 101.87%
[1]; pH 1.2, 90 min
  Dissolution: 101.97%
[1]; pH 4.5, 5 min
  Dissolution: 29.46%
[1]; pH 4.5, 10 min
  Dissolution: 47.54%
[1]; pH 4.5, 15 min
  Dissolution: 68.75%
[1]; pH 4.5, 20 min
  Dissolution: 85.33%
[1]; pH 4.5, 30 min
  Dissolution: 101.35%
[1]; pH 4.5, 45 min
  Dissolution: 101.42%
[1]; pH 4.5, 60 min
  Dissolution: 102.72%
[1]; pH 4.5, 90 min
  Dissolution: 102.97%
[1]; pH 6.8, 5 min
  Dissolution: 59.24%
[1]; pH 6.8, 10 min
  Dissolution: 76.73%
[1]; pH 6.8, 15 min
  Dissolution: 88.40%
[1]; pH 6.8, 20 min
  Dissolution: 92.31%
[1]; pH 6.8, 30 min
  Dissolution: 93.23%
[1]; pH 6.8, 45 min
  Dissolution: 93.09%
[1]; pH 6.8, 60 min
  Dissolution: 93.31%
[1]; pH 6.8, 90 min
  Dissolution: 94.02%

## CC(C)OC(=O)[C@H](C)N[P@](=O)(OC[C@H]1O[C@@H](n2ccc(=O)[nH]c2=O)[C@](C)(F)[C@@H]1O)Oc1ccccc1 [Sofosbuvir, Isopropyl (2S)-2-[(2R, 3R, 4R, 5R)-5-(2,4-dioxopyrimidin-1-yl)-4-fluoro-3-hydroxy-4-methyl-tetrahydrofuran-2-yl] methoxy-phenoxy-phosphoryl] amino] propanoate]
[1]; pH 1.2, 5 min
  Dissolution: 13.82%
[1]; pH 1.2, 10 min
  Dissolution: 28.77%
[1]; pH 1.2, 15 min
  Dissolution: 44.57%
[1]; pH 1.2, 20 min
  Dissolution: 63.43%
[1]; pH 1.2, 30 min
  Dissolution: 85.39%
[1]; pH 1.2, 45 min
  Dissolution: 86.07%
[1]; pH 1.2, 60 min
  Dissolution: 88.13%
[1]; pH 1.2, 90 min
  Dissolution: 90.79%
[1]; pH 4.5, 5 min
  Dissolution: 15.00%
[1]; pH 4.5, 10 min
  Dissolution: 33.94%
[1]; pH 4.5, 15 min
  Dissolution: 52.46%
[1]; pH 4.5, 20 min
  Dissolution: 74.22%
[1]; pH 4.5, 30 min
  Dissolution: 98.95%
[1]; pH 4.5, 45 min
  Dissolution: 100.44%
[1]; pH 4.5, 60 min
  Dissolution: 101.08%
[1]; pH 4.5, 90 min
  Dissolution: 102.04%
[1]; pH 6.8, 5 min
  Dissolution: 36.18%
[1]; pH 6.8, 10 min
  Dissolution: 65.56%
[1]; pH 6.8, 15 min
  Dissolution: 83.04%
[1]; pH 6.8, 20 min
  Dissolution: 97.55%
[1]; pH 6.8, 30 min
  Dissolution: 99.80%
[1]; pH 6.8, 45 min
  Dissolution: 100.04%
[1]; pH 6.8, 60 min
  Dissolution: 100.47%
[1]; pH 6.8, 90 min
  Dissolution: 100.39%

From patent US10046005B2, “Composition and method of use for combinations of anti-viral protease, polymerase inhibitors and natural bioactive compounds in the treatment of hepatitis C infection” (priority 2014, dated 2018)
